One may read the AUC(0-t) as exposure summed from dosing to a finite time, without extrapolation to infinity. The low end stands for less exposure, the high end for more exposure. One may read the half-life as the time needed for the level to fall by half in the phase considered. A higher half-life goes with slow loss.

Data set [1] deals with MCF-7 human breast cancer cells. In words: Cell viability assay (CELLTITER-GLO). The data set is classed as cell-based. As to conditions: MCF7, 168 h, MCF-7 cells, 7 days. As to the method: The cell viability of MCF-7 human breast cancer cells under standard culture conditions was assessed using the CELLTITER-GLO assay. MCF-7 cells were seeded at 3,000 cells per well in 96-well plates and incubated overnight in a CO2 incubator. The next day, serial dilutions of Compound 1 at various concentrations were added to the wells. The plates were returned to the incubator and cultured for 7 days. After 7 days, the plates were equilibrated at room temperature for 30 minutes. Subsequently, 100 μL of CELLTITER-GLO detection solution was added. The cells were mixed on an orbital shaker for 5 min and then incubated for additional 10 min. The plate was read with an ENVISION reader. Data were processed and analyzed to determine the IC50 values.
(In ATP-based viability assays light output follows the ATP content of the culture.)

In data set [2] the test system is Irinotecan-induced constipation model. As to the kind of experiment: Irinotecan-induced constipation model. The data set is classed as in vivo, Sprague-Dawley rats. The conditions noted are these: irinotecan 260 mg/kg once a day, 1 day, rats. An excerpt: Sprague-Dawley rats (180-200 g, 7-8 weeks old, Jihui) were acclimated for 7 days and randomly divided into three groups: control group, irinotecan group, and CDK inhibitor group, with 10 rats per group. The control group received the same vehicle orally as the CDK inhibitor group, followed by an injection of the same vehicle as the irinotecan group; the irinotecan group received the same oral vehicle as the CDK inhibitor group, followed by an injection of irinotecan; the CDK inhibitor group received the CDK inhibitor orally, followed by an injection of irinotecan.
From Day 2 to Day 7, the degree of constipation was assessed for each rat based on the following score:
Constipation assessment: Feces excreted within a 3-hour period were collected and evaluated for morphology and weight using an electronic balance. Stool reduction rate was calculated according to the method of Ji Eun Kim (Lab Anim Res. 2016 December; 32(4): 231-240). Stool reduction rate (%)=(Control group−Irinotecan or CDK inhibitor group)/Control group×100%.
The constipation relief rate of the CDK inhibitor was calculated as follows: Relief rate (%)=([…])/Irinotecan group stool reduction rate×100%.

The nature of data set [3]: Single-dose intravenous and oral pharmacokinetic study in rats. Type of data set: in vivo, Sprague-Dawley (SD) rats. The conditions noted are these: male SD rats. Here is the method:
Six male Sprague-Dawley (SD) rats were randomly divided into two groups, with three rats in each group. Compound 1 was administered either by intravenous injection at a dose of 2 mg/kg or by oral gavage at a dose of 10 mg/kg. The dosing volumes were 5 mL/kg for intravenous administration and 10 mL/kg for oral administration, with purified water used as the solvent. For the intravenous group, blood samples were collected at 0.083, 0.25, 0.5, 1, 2, 4, 6, 8, and 24 hours post-dose. For the oral group, blood samples were collected at 0.25, 0.5, 1, 2, 4, 6, 8, and 24 hours post-dose. Plasma samples were prepared by centrifugation and stored at −70° C. The plasma concentration of Compound 1 was determined using LC-MS/MS.

Data set [4] deals with Human colorectal cancer COLO205 cells. As to the kind of experiment: Cell apoptosis assay (Caspase-Glo 3/7), 5-FU-induced apoptosis. The data set is classed as cell-based. As to the method: The Caspase-Glo® 3/7 assay was employed to evaluate the protective effect of the compounds of the present invention against 5-fluorouracil (5-FU)-induced apoptosis. Human colorectal cancer COLO205 cells were cultured in RPMI 1640 medium (Invitrogen) in an incubator at 37° C. with 5% CO2.
COLO205 cells were seeded in 96-well plates at a density of 4,000 cells per well and incubated overnight. On the following day, serially diluted concentrations of Compound 1 were added to the wells and incubated for 16 hours. Afterward, 5-FU was added and the cells were incubated for an additional 48 hours. Subsequently, Caspase-Glo® 3/7 reagent (100 μL) was added to each well. The cells were mixed on an orbital shaker for 10 min and incubated at room temperature for 2 h. After an additional 10-minute incubation, the plate was measured using the Envision instrument and the data was processed. Relief rate (%)=(5-FU group−CDK group)/5-FU group×100%.

The target in another data set is CDK6/cyclin D (Homo sapiens, UniProt Q00534). In words: KinaseProfile radiometric protein kinase assay, CDK6/cyclin D. The data set is classed as biochemical. Here is the method: The KinaseProfile radiometric protein kinase assay was used to evaluate the inhibitory activity of the compounds against CDK2/cyclin E, CDK4/cyclin D, CDK6/cyclin D, CDK7/cyclin H and CDK9/cyclin T.
The compounds were prepared in 100% DMSO at a final 50× stock concentration. The working stock solution was added as the first component to the assay wells. CDK2/cyclin E, CDK4/cyclin D, CDK6/cyclin D, CDK7/cyclin H, and CDK9/cyclin T were added in their respective kinase buffers: (CDK4: 8 mM MOPS pH 7.0, 0.2 mM EDTA, 0.03% BSA, 0.03% Tween 20, 20 mM DTT, and 0.2 mg/ml Rb fragment, 10 mM Magnesium acetate; CDK2, CDK6: 8 mM MOPS pH 7.0, 0.2 mM EDTA, 0.1 mg/mL histone H1, 10 mM Magnesium acetate; CDK7: 8 mM MOPS pH 7.0, 0.2 mM EDTA, 500 μM peptide, 10 mM Magnesium acetate; CDK9: 8 mM MOPS pH 7.0, 0.2 mM EDTA, 100 μM […], 10 mM Magnesium acetate) and [γ-^33 P-ATP] was included in the reaction mixture. The reaction was initiated by the addition of the Mg/ATP mixture and incubated at room temperature for 40 minutes. The reaction was terminated by the addition of 0.5% phosphoric acid. Then, 10 μL of the reaction mixture was spotted onto P30 filter pads, washed four times (1 minute each) with 0.425% phosphoric acid, followed by a single wash with methanol. The pads were then dried and counted. The data were recorded, inhibition rates were calculated, and IC50 values were determined accordingly. Table 2 summarizes the in vitro enzymatic inhibitory activity of the compounds of the present application.

Setting [5] is: 25 mg/kg oral, 4 hours before irinotecan and 8 hours after irinotecan.
The mark [6] stands for this setting: 50 mg/kg oral, 6 hours before irinotecan and 6 hours after irinotecan.
Where [7] appears, read: 100 mg/kg oral, 4 hours before irinotecan and 8 hours after irinotecan.
[8] abbreviates: 100 mg/kg oral, 6 hours before irinotecan and 6 hours after irinotecan.
Setting [9] is: Sprague-Dawley, rat, IV 2 mg/kg, plasma.
Setting [10] is: 50 mg/kg oral, 4 hours before irinotecan and 8 hours after irinotecan.
The mark [11] stands for this setting: 5 mg/kg oral, 4 hours before irinotecan and 8 hours after irinotecan.
Where [12] appears, read: 10 mg/kg oral, 4 hours before irinotecan and 8 hours after irinotecan.
The mark [13] stands for this setting: 25 mg/kg oral, 6 hours before irinotecan and 6 hours after irinotecan.

Molecules are shown by their SMILES. Where two headings read alike, the source gives them in different places. A value given as a limit tells only on which side of the number the result lay.

CDK6/cyclin D, sequence (Q00534 whole entry, the tested form may be a part): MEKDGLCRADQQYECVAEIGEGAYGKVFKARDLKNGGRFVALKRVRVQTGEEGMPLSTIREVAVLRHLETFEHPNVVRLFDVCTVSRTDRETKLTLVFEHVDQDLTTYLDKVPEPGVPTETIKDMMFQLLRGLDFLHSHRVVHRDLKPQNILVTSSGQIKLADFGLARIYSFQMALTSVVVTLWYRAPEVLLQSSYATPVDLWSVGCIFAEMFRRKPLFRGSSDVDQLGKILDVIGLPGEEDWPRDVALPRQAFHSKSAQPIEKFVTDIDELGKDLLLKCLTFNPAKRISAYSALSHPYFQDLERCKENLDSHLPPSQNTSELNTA
CDK6/cyclin D, sequence (P30281 whole entry partner, the tested form may be a part): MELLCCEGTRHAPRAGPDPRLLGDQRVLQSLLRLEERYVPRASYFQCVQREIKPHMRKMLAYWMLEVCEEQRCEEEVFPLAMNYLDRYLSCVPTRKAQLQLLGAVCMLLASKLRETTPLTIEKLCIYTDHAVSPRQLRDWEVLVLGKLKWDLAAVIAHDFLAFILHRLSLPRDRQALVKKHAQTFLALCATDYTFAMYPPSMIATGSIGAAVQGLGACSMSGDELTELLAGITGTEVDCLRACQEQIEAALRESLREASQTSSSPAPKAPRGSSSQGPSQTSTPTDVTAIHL

Turning to `CC(=O)c1c(C)c2c(n(C3CCCC3)c1=O)=NC(Nc1ccc(N3CCN(S(=O)(=O)NCCN)CC3)cn1)NC=2` (centres unmarked) [Compound 1], the IC50 in data set [1] (read-out: Absolute IC 50) was under 1 µM; in data set [1] (read-out: Relative IC 50) it was under 1 µM; against CDK6/cyclin D, under 0.05 µM. Besides, the constipation relief rate in data set [2] (2.5 mg/kg oral, 4 hours before irinotecan and 8 hours after irinotecan) is given as 20%; in data set [2] (5 mg/kg oral, 6 hours before irinotecan and 6 hours after irinotecan), 30%; in data set [2] (setting [5]), 75%; in data set [2] (setting [6]) it was 50%; in data set [2] (setting [7]), 40%; in data set [2] (setting [8]), 40%. The AUC(0-t) in data set [3] (setting [9]) was found to be 602 ± 161 ng·h/mL. The compound further displayed a clearance in data set [3] (setting [9]) of 56.7 ± 17.3 mL/min/kg. The compound also gave a half-life in data set [3] (setting [9]) of 5.55 ± 0.503 h. Further, the Vd in data set [3] (Sprague-Dawley, rat, IV 2 mg/kg, plasma, read-out: Vdss) is 9.61 ± 5.43 L/kg. Moreover, the “plasma concentrations following oral administration” value in data set [3] (PO 10 mg/kg, all samples 0.25-24 h, below the lower limit of quantification) was under 1 ng/mL. The “Relief rate of 5-FU -induced cell apoptosis” value (“Relief rate of 5-FU” for short) in data set [4] (concentration 0.1 μM) stood at 30%; in data set [4] (concentration 1 μM), 60%; in data set [4] (concentration 5 μM), 80%; in data set [4] (concentration 25 μM), 40%.

For `CC(=O)c1c(C)c2cnc(Nc3ccc(N4CCN(S(=O)(=O)NCC(C)N)CC4)cn3)nc2n(C2CCCC2)c1=O` (centres unmarked) [Compound 3], the IC50 in data set [1] (read-out: Absolute IC 50) was under 10 µM; in data set [1] (read-out: Relative IC 50) it was under 5 µM; against CDK6/cyclin D, under 0.1 µM. Also, the constipation relief rate in data set [2] (25 mg/kg oral, 8 hours before irinotecan and 4 hours after irinotecan) amounted to 50%; in data set [2] (25 mg/kg oral, 12 hours before irinotecan and 0 hours after irinotecan), 30%; in data set [2] (setting [10]) it was 60%; in data set [2] (setting [6]), 70%. Besides, the “Relief rate of 5-FU” value is 20% in data set [4] (concentration 0.1 μM), 40% in data set [4] (concentration 1 μM), 40% in data set [4] (concentration 5 μM) and 30% in data set [4] (concentration 25 μM).

On to `CC(=O)c1c(C)c2cnc(Nc3ccc(N4CCN(S(=O)(=O)NCC(C)(C)N)CC4)cn3)nc2n(C2CCCC2)c1=O` [Compound 2], for which the IC50 in data set [1] (read-out: Absolute IC 50) is under 0.5 µM; in data set [1] (read-out: Relative IC 50), under 1 µM; against CDK6/cyclin D, under 0.05 µM. The constipation relief rate in data set [2] (setting [11]) is listed as 25%; in data set [2] (setting [10]) it was 80%; in data set [2] (setting [8]), 80%; in data set [2] (150 mg/kg oral, 6 hours before irinotecan and 6 hours after irinotecan), 60%. Also, the “Relief rate of 5-FU” value came out at 40% in data set [4] (concentration 1 μM), 50% in data set [4] (concentration 5 μM), 70% in data set [4] (concentration 10 μM) and 40% in data set [4] (concentration 50 μM).

For the compound `CC(=O)c1c(C)c2cnc(Nc3ccc(N4CCN(S(=O)(=O)NCC(C)(C)CN)CC4)cn3)nc2n(C2CCCC2)c1=O` [Compound 6], the IC50 in data set [1] (read-out: Absolute IC 50) is under 1 µM; in data set [1] (read-out: Relative IC 50), under 1 µM; against CDK6/cyclin D it was under 0.1 µM. Besides, the constipation relief rate is 40% in data set [2] (setting [12]); 75% in data set [2] (setting [5]); 60% in data set [2] (setting [13]); 75% in data set [2] (setting [6]); 25% in data set [2] (150 mg/kg oral, 12 hours before irinotecan). For the same compound, the “Relief rate of 5-FU” value stood at 20% in data set [4] (concentration 0.1 μM), 40% in data set [4] (concentration 1 μM), 60% in data set [4] (concentration 5 μM) and 70% in data set [4] (concentration 25 μM).

Take `CC(=O)c1c(C)c2cnc(Nc3ccc(N4CCN(S(=O)(=O)NCC(C)CN)CC4)cn3)nc2n(C2CCCC2)c1=O` (centres unmarked) [Compound 5]: the figures for the IC50 (in data set [1] (read-out: Absolute IC 50); in data set [1] (read-out: Relative IC 50); on CDK6/cyclin D) were under 10 µM, under 10 µM and under 0.05 µM, respectively. Moreover, the constipation relief rate is reported as 25% in data set [2] (setting [11]); 40% in data set [2] (setting [13]); 80% in data set [2] (setting [10]); 60% in data set [2] (50 mg/kg oral, 8 hours before irinotecan and 4 hours after irinotecan); 50% in data set [2] (setting [7]); 40% in data set [2] (100 mg/kg oral, 10 hours before irinotecan and 2 hours after irinotecan). Besides, the “Relief rate of 5-FU” value in data set [4] (concentration 0.5 μM) is on record as 10%; in data set [4] (concentration 5 μM), 50%; in data set [4] (concentration 50 μM) it was 40%; in data set [4] (concentration 100 μM), 30%.

As to `CC(=O)c1c(C)c2cnc(Nc3ccc(N4CCN(S(=O)(=O)NCCCN)CC4)cn3)nc2n(C2CCCC2)c1=O` [Compound 4], the values for the IC50 (in data set [1] (read-out: Absolute IC 50); in data set [1] (read-out: Relative IC 50); against CDK6/cyclin D) were under 1 µM, under 1 µM and under 0.05 µM, respectively. Also, the constipation relief rate is recorded as 40% in data set [2] (setting [12]); 50% in data set [2] (setting [13]); 70% in data set [2] (setting [6]); 40% in data set [2] (100 mg/kg oral, 8 hours before irinotecan and 4 hours after irinotecan); 30% in data set [2] (100 mg/kg oral, 12 hours before irinotecan). The “Relief rate of 5-FU” value in data set [4] (concentration 10 μM) is 40%; in data set [4] (concentration 25 μM) it was 50%; in data set [4] (concentration 50 μM) it was 50%; in data set [4] (concentration 100 μM), 30%.
